Consider two molecules from patent EP4426265B1, “OPHTHALMIC COMPOSITION COMPRISING A LUBRICANT AGENT AND VERBASCOSIDE, AND SAID COMPOSITION FOR USE IN THE PREVENTIVE OR CURATIVE TREATMENT OF A CORNEAL EPITHELIAL DEFECT AND/OR A CONJUNCTIVAL DEFECT IN A SUBJECT” (NOVAX PHARMA S.A.M., priority 2021, dated 2023).

The conditions of the series: not told.

With `OB(O)O` [Boric acid], the “percentage average value (%av) of permeability” value is given as 0.9%.

As to `C[C@@H]1O[C@@H](O[C@@H]2[C@@H](O)[C@H](OCCc3ccc(O)c(O)c3)O[C@H](CO)[C@H]2OC(=O)/C=C/c2ccc(O)c(O)c2)[C@H](O)[C@H](O)[C@H]1O` [VERBASCOSIDE, Verbascoside], the “percentage average value (%av) of permeability” value was “not measurable”.
